Experiments:
Test in all cases: relative viability (nuclei count vs DMSO), 5 days (fraction); higher = more cells survive
Gemcitabine + Decitabine = compound: Nc1ccn([C@@H]2O[C@H](CO)[C@@H](O)C2(F)F)c(=O)n1 [Gemcitabine] + Nc1ncn([C@H]2C[C@H](O)[C@@H](CO)O2)c(=O)n1 [Decitabine] (partner 2 µM)
How it was run: (§1)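 Lung cancer cell lines were seeded in 1536-well plates and dosed by pin tool the next day, with either a single drug or a fixed anchor-drug dose combined with five library-drug doses (not always all listed) spaced in √10 steps. Five days later, one step fixed the cells and stained their nuclei (final 0.05% Triton X-100, 1% formaldehyde, 1 ug/ml Hoechst), and nuclei were counted on 4× images. Relative viability is the nuclei count in treated wells divided by the count in vehicle wells, and each value is the median of duplicate plates.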

Gemcitabine + Foretinib = compound: Nc1ccn([C@@H]2O[C@H](CO)[C@@H](O)C2(F)F)c(=O)n1 [Gemcitabine] + COc1cc2c(Oc3ccc(NC(=O)C4(C(=O)Nc5ccc(F)cc5)CC4)cc3F)ccnc2cc1OCCCN1CCOCC1 [Foretinib] (partner 0.25 µM)
How it was run: as §1

Gemcitabine + Dasatinib = compound: Nc1ccn([C@@H]2O[C@H](CO)[C@@H](O)C2(F)F)c(=O)n1 [Gemcitabine] + Cc1nc(Nc2ncc(C(=O)Nc3c(C)cccc3Cl)s2)cc(N2CCN(CCO)CC2)n1 [Dasatinib] (partner 0.075 µM)
How it was run: as §1

Gemcitabine + Luminespib = compound: Nc1ccn([C@@H]2O[C@H](CO)[C@@H](O)C2(F)F)c(=O)n1 [Gemcitabine] + CCNC(=O)c1noc(-c2cc(C(C)C)c(O)cc2O)c1-c1ccc(CN2CCOCC2)cc1 [Luminespib] (partner 0.01 µM)
How it was run: as §1

| Cell Line | relative viability (Gemcitabine + Decitabine; first compound 0.001 µM) | relative viability (Gemcitabine + Decitabine; first compound 0.003162 µM) | relative viability (Gemcitabine + Decitabine; first compound 0.01 µM) | relative viability (Gemcitabine + Decitabine; first compound 0.03162 µM) | relative viability (Gemcitabine + Decitabine; first compound 0.1 µM) | relative viability (Gemcitabine + Foretinib; first compound 0.001 µM) | relative viability (Gemcitabine + Foretinib; first compound 0.003162 µM) | relative viability (Gemcitabine + Foretinib; first compound 0.01 µM) | relative viability (Gemcitabine + Foretinib; first compound 0.03162 µM) | relative viability (Gemcitabine + Foretinib; first compound 0.1 µM) | relative viability (Gemcitabine + Dasatinib; first compound 0.001 µM) | relative viability (Gemcitabine + Dasatinib; first compound 0.003162 µM) | relative viability (Gemcitabine + Dasatinib; first compound 0.01 µM) | relative viability (Gemcitabine + Dasatinib; first compound 0.03162 µM) | relative viability (Gemcitabine + Dasatinib; first compound 0.1 µM) | relative viability (Gemcitabine + Luminespib; first compound 0.001 µM) | relative viability (Gemcitabine + Luminespib; first compound 0.003162 µM) | relative viability (Gemcitabine + Luminespib; first compound 0.01 µM) | relative viability (Gemcitabine + Luminespib; first compound 0.03162 µM) | relative viability (Gemcitabine + Luminespib; first compound 0.1 µM) |
| --- | --- | --- | --- | --- | --- | --- | --- | --- | --- | --- | --- | --- | --- | --- | --- | --- | --- | --- | --- | --- |
| HCC-366 | 0.329 | 0.331 | 0.0609 | 0.0417 | 0.0234 | 0.965 | 0.989 | 0.417 | 0.0476 | 0.0377 | 0.633 | 0.637 | 0.155 | 0.0301 | 0.0176 |  |  |  |  |  |
| HCC-827 | 0.333 | 0.226 | 0.274 | 0.166 | 0.186 | 1 | 0.865 | 0.565 | 0.332 | 0.177 | 0.295 | 0.226 | 0.319 | 0.253 | 0.186 | 0.777 | 0.365 | 0.386 | 0.259 | 0.16 |
| HOP-62 | 0.253 | 0.172 | 0.16 | 0.0888 | 0.121 | 1.01 | 0.965 | 0.306 | 0.103 | 0.0927 | 0.667 | 0.571 | 0.163 | 0.0786 | 0.0707 | 0.968 | 0.852 | 0.376 | 0.107 | 0.106 |
| IA-LM |  |  |  |  |  | 1.07 | 0.916 | 1.11 | 0.0445 | 0.0363 |  |  |  |  |  |  |  |  |  |  |
| LC-2-ad | 0.797 | 0.863 | 0.729 | 0.658 | 0.469 | 0.943 | 0.829 | 0.712 | 0.206 | 0.158 | 0.567 | 0.226 | 0.193 | 0.167 | 0.138 | 1.15 | 0.885 | 0.832 | 0.258 | 0.219 |
| LCLC-97TM1 | 0.235 | 0.206 | 0.143 | 0.104 | 0.0854 | 0.886 | 0.832 | 0.597 | 0.136 | 0.118 | 0.819 | 0.803 | 0.429 | 0.159 | 0.106 | 0.813 | 0.86 | 0.334 | 0.202 | 0.129 |
| LCLC-103H | 0.694 | 0.738 | 0.715 | 0.674 | 0.57 | 0.78 | 0.853 | 0.663 | 0.348 | 0.233 | 0.54 | 0.53 | 0.502 | 0.179 | 0.223 | 0.956 | 1.01 | 0.845 | 0.314 | 0.183 |
| LK-2 | 0.242 | 0.23 | 0.204 | 0.109 | 0.128 | 1.16 | 1.13 | 0.808 | 0.276 | 0.18 | 0.299 | 0.356 | 0.174 | 0.201 | 0.158 | 0.186 | 0.245 | 0.173 | 0.178 | 0.164 |
| LOU-NH91 | 0.801 | 0.732 | 0.756 | 0.562 | 0.41 | 0.965 | 0.69 | 0.591 | 0.332 | 0.209 | 0.545 | 0.28 | 0.455 | 0.244 | 0.242 | 0.322 | 0.322 | 0.339 | 0.182 | 0.24 |
| LU99A | 0.789 | 1.03 | 0.816 | 0.985 | 0.836 | 0.856 | 0.791 | 0.858 | 0.819 | 0.812 | 0.555 | 0.56 | 0.558 | 0.516 | 0.507 | 0.238 | 0.306 | 0.233 | 0.232 | 0.266 |
| LXF-289 | 0.396 | 0.372 | 0.321 | 0.222 | 0.151 | 0.974 | 0.966 | 0.803 | 0.106 | 0.107 | 0.227 | 0.22 | 0.0855 | 0.0424 | 0.0448 | 0.627 | 0.706 | 0.479 | 0.106 | 0.112 |
| NCI-H23 | 0.284 | 0.237 | 0.155 | 0.157 | 0.136 | 0.751 | 0.441 | 0.178 | 0.163 | 0.131 | 0.865 | 0.36 | 0.126 | 0.135 | 0.1 | 0.214 | 0.212 | 0.192 | 0.175 | 0.217 |
| NCI-H322M | 0.607 | 0.445 | 0.41 | 0.457 | 0.388 | 0.985 | 0.383 | 0.289 | 0.272 | 0.29 | 0.295 | 0.241 | 0.28 | 0.274 | 0.252 | 0.73 | 0.445 | 0.334 | 0.36 | 0.344 |
| NCI-H358 | 0.188 | 0.171 | 0.151 | 0.102 | 0.105 | 0.729 | 0.168 | 0.0883 | 0.0934 | 0.0705 | 0.21 | 0.151 | 0.0931 | 0.0759 | 0.0931 | 0.778 | 0.294 | 0.126 | 0.121 | 0.114 |
| NCI-H1299 |  |  |  |  |  | 1.09 | 1.08 | 1.09 | 1.07 | 1.08 |  |  |  |  |  |  |  |  |  |  |
| NCI-H1563 |  |  |  |  |  | 0.948 | 0.916 | 0.706 | 0.566 | 0.526 | 0.433 | 0.46 | 0.457 | 0.378 | 0.373 | 0.522 | 0.549 | 0.585 | 0.483 | 0.441 |
| NCI-H1648 | 0.515 | 0.443 | 0.442 | 0.315 | 0.293 |  |  |  |  |  |  |  |  |  |  |  |  |  |  |  |
| NCI-H1703 |  |  |  |  |  | 0.277 | 0.238 | 0.185 | 0.175 | 0.167 |  |  |  |  |  |  |  |  |  |  |
| NCI-H1792 | 0.406 | 0.291 | 0.0943 | 0.0857 | 0.0713 |  |  |  |  |  | 0.785 | 0.485 | 0.329 | 0.192 | 0.142 | 0.382 | 0.286 | 0.233 | 0.206 | 0.167 |
| NCI-H2228 |  |  |  |  |  | 0.913 | 0.536 | 0.198 | 0.183 | 0.0975 | 0.529 | 0.3 | 0.118 | 0.111 | 0.087 | 0.131 | 0.0993 | 0.14 | 0.149 | 0.124 |

Reference: the supplement of paper PMC10307832
